Here are results for 2 compounds from patent publication US20230390396A1, “COMPOSITION CONTAINING 5-AMINOLEVULINIC ACID HYDROCHLORIDE” (priority 2020, published 2023).

The test system of experiment [1] is patient's brain tumor area. As to the kind of experiment: Fluorescence visualization of brain tumor after drinking 5-aminolevulinic acid hydrochloride. The following applies: 19 mg/kg oral, 3 hours before induction of anesthesia, operation 6 hours after drinking; FIG. 1. Type of experiment: in vivo, human.
The nature of experiment [2]: Antioxidative activity (DPPH radical scavenging, modified Blois method). Particulars: 2 mL sample + 2 mL 0.2 mM DPPH, 30 minutes, absorbance at 517 nm. How it is done:
Radical scavenging activity was used using the cosmetic composition for acne skin improvement according to the example as a sample.
The antioxidative activity (electron donation ability, EDA %) of a sample was measured by modifying the Blois method. 2 mL of the sample was mixed with 2 mL of a 0.2 mM DPPH(1,1-diphenyl-2-picryl hydrazyl) solution, and then allowed to stand for 30 minutes, followed by measuring an absorbance at 517 nm.
The radical scavenging activity was expressed as the rate of decrease in absorbance between the sample-added group and the non-added group. The radical scavenging activity was calculated according to the following equation, and results are summarized in [Table 2] below. As a sample for the control, BHT (synthetic antioxidant) was used.
Radical scavenging activity (%)=(1−Absorbance of sample-added group/Absorbance of non-added group)×100
(In general: DPPH is a stable violet radical that fades when it is reduced.)

On to `Cl.NCC(=O)CCC(=O)O` [5-aminolevulinic acid hydrochloride], for which the “Fluorescence of patient's brain tumor area at surgery” value in experiment [1] is “emitting a fluorescent color”.

On to `Cc1cc(C(C)(C)C)c(O)c(C(C)(C)C)c1` [Control, BHT], for which the Radical scavenging activity in experiment [2] worked out at 55.3 ± 0.45%.
